This data set in a line: stabilization of peroxy compounds by the present stabilizer system. The data set is classed as physicochemical. An excerpt: Trace amounts of peroxy compounds stabilized with a hydrogen peroxide stabilizer, especially diethylene triamine penta(methylene phosphonic acid) or 1-hydroxyethylidene-1,1-diphosphonic acid may be utilized as a preservative for drugs, eyewashes, or other solutions containing an active ingredient designed to be used in the ocular environment. The preservative according to the present invention may be used in the ocular environment. Furthermore, the preservative according to the present invention may be used in any ophthalmic solution as long as the active ingredient in that solution is compatible with trace amounts of the peroxy compounds. Also, virtually any peroxy compound may be used so long as it is hydrolyzed in water to produce hydrogen peroxide. Examples of such sources of hydrogen peroxide, which provide an effective resultant amount of hydrogen peroxide, include sodium perborate decahydrate, sodium peroxide and urea peroxide. […] Hydrogen peroxide concentrations from about 2 ppm to about 1000 ppm are useful in the present invention. Therefore, peroxy compounds that generate hydrogen peroxide from about 2 ppm to about 1000 ppm are useful in the present invention. More preferably, the concentration of hydrogen peroxide from is about 10 ppm to about 1000 ppm.

Take `CC(=O)OO` [peracetic acid]: the “stabilization by the present system” value is “cannot be stabilized”.

Values taken from patent US20020127281A1, “Stabilized hyrogen peroxide solutions” (priority 2000, published 2002).
